This is an account of results in patent publication US20020055528A1, “Artemisinin analogs having antimalarial, antiproliferative, and antitumor activities and chemoselective methods of making the same” (priority 1999, published 2002).

Series [1] concerns murine keratinocyte cell line PE. Nature of the series: Growth inhibition of PE cells, MTT assay. The class given is cell-based. Particulars: 100 nanomolar; compared with calcitriol; FIG. 5. The procedure: To determine the inhibitory effect of the compositions of the present invention on cell proliferation, screening assays were performed on a murine keratinocyte cell line PE. Cell line PE was chosen for its particular sensitivity to the induction of omithine decarboxylase (ODC) activity by the extensively characterized tumor promoter TPA. Cell line PE was derived from a papilloma-induced in female SENCAR mice by a standard skin initiation/promotion protocol, see Yuspa, S. H., et al., Carcinogenesis, 7:949-958 (1986). PE cell culture medium consisted of Eagle's minimal essential medium without calcium chloride (Whittaker Bioproducts, Walkersville, Mass.) supplemented with 8% chelexed fetal calf serum and 1% antibiotic-antimycotic (Gibco BRL) and the addition of CaCI2 to 0.05 mM Ca^++
MTT [3-(4,5-dimethylthiazol-2-yl)-2,5-diphenyltetraxolium bromide] was purchased from Sigma Chemical Co. (St. Louis, Mo.), and TPA was supplied by L.C. Services (Woburn, Mass.). L-[^14C]omithine ([…]) was from Amersham/Searle Corp. (Arlington Heights, Ill.). Chemical solvents used in all assays of biological activity were of the highest grade commercially available.
Growth curves, shown in FIG. 5, for PE cells treated with calcitriol and the C-10 carbon-substituted dimers VII-f, VII-g and VII-h generated by assay for the reduction of the tetrazolium-based compound MTT, see Charmichael, et al., Cancer Res., 47:936-942 (1987). A mitochondrial dehydrogenase reduces MTT to a blue formazan product with an absorbance maximum of 505 nm in DMSO; the number of viable cells can thus be determined spectrophotometrically. PE cells were seeded at a density of 5,000 cells/well in 50 IL of medium into 96-well microtiter plates. Twelve hours later, the medium was removed, and cells were treated with 100 μL of fresh medium into which the appropriate amount of calcitriol or analog dissolved in dimethyl sulfoxide (DMSO) had been added, with the concentration of DMSO held constant at 0.1 %. […] At 24-hour intervals following the initial treatment of the cells with compounds, 0.1 mg (50 μL of a 2 mg/mL solution) of MTT was added to each well. After 4 hours, the MTT was removed and DMSO added to dissolve the blue formazan dye. Using a microtiter plate reader, the A505 was then determined and cell number calculated from blank-subtracted absorbance values.
Background: Formazan colour is commonly taken as a measure of viable cells.

Another series has as its system MOLT-4. As to conditions: for Log10TGI: PG=0. The method, then: (§1) The screening assay is performed on 96-well microtitre plates. Relatively high initial inoculation densities are used, in order to permit measurement of “time-zero” values and to enhance the screen's ability to detect and provide some differentiation between antiproliferative and cytotoxic response parameters. […] The inoculated microtitre plates are pre-incubated for 24 hours at 37θC prior to drug additions. The five drug dilutions tested routinely range from 10^−4 to 10^−8 molar. Higher or lower concentration ranges may be selected on a nonroutine basis if appropriate solubility and/or prior biological information or other screening data so dictate. Duplicate wells are prepared for all concentrations, (concentration is often denoted by placing brackets around a number); “time-zero” and “no drug” controls are also provided for each test. The minimum amount of compound required for a one-time evaluation in the routine screen can be calculated from the knowledge that each test requires a total of approximately 40 ml (0.04 liter) of cell culture medium containing the highest desired drug concentration. Thus, the amount (grams) of sample required (assuming an upper test concentration limit of 10^−4 M) is: molecular weight of compound×[…]. After a 48 hour incubation (37θC) with the test compound, the cells are fixed in situ to the bottoms of the microtitre wells by addition of 50 ul of either 50% trichloroacetic acid (for adherent cell lines) or 80% trichloroacetic acid (for settled cell suspension lines), followed by incubation for 60 minutes at 4θC. The cellular protein in each well is assayed using a sulforhodamine B (SRB) stain procedure. Briefly, after discarding the supernatants, the microtitre plates are washed 5 times with deionized water and air-dried. One hundred microliters of SRB solution (0.4% w/v in 1% acetic acid) is added to each microtitre well and incubated for 10 minutes at room temperature. Unbound SRB is removed by washing 5 times with 1 % acetic acid. The plates are air-dried, the bound stain is solubilized with Tris buffer, and the optical densities read at 515 nm. SRB is a bright pink anionic dye which, in dilute acetic acid, binds electrostatically to the basic amino acids of TCA-fixed cells. Cryopreserved master stocks of all the lines are maintained, and cultures used for screening are replaced from the master stock after no more than twenty passages in the screening laboratory. The cell line panel consists of 60 lines, organized into nine, disease-related subpanels including leukemia, non-small-cell lung cancer, colon, CNS, melanoma, ovarian, renal, prostate and breast cancers.
(§2) The response parameters G150 and LC50 are interpolated values representing the concentrations at which the percentage growth (PG) is +50 and −50, respectively:
(§3) GI50 is the concentration for which the PG=+50. At this value the increase from time tzero, in the number or mass of cells in the test well is only 50% as much as the corresponding increase in the control well during this period of the experiment, see Table II. A drug effect of this intensity is interpreted as primary growth inhibition.
(§4) TGI is the concentration for which PG=0. At this value the number or mass of cells in the well at the end of the experiment equals the number or mass of cells in the well at time tzero, see Table III. A drug effect of this intensity is regarded as cytostasis.
(§5) LC50 is the concentration for which the PG=−50. At this value, the number or mass of cells in the test well at the end of the experiment is half that at time tzero, see Table IV. This is interpreted as cytotoxicity.

Another series deals with SR. Nature of the series: NCI 60 cell line screen (SRB), Leukemia. The series is classed as cell-based.
A further series has as its system HOP-62. Nature of the series: NCI 60 cell line screen (SRB), Non-Small Cell Lung Cancer. The series is classed as cell-based. As to conditions: for Log10TGI: PG=0.
In another series the test system is ACHN. Nature of the series: NCI 60 cell line screen (SRB), Renal Cancer. The class given is cell-based. As to conditions: for Log10TGI: PG=0.
The test system of the next series is RXF 393. Nature of the series: NCI 60 cell line screen (SRB), Renal Cancer. The class given is cell-based. Particulars: for Log10TGI: PG=0.
Another series concerns MDA-N. Nature of the series: NCI 60 cell line screen (SRB), Breast Cancer. Particulars: for Log10TGI: PG=0. The class given is cell-based.
The subject of a further series is 60 cell line panel. The series can be described thus: NCI 60 cell line screen (SRB), whole panel. Particulars: for Delta of Log10GI50 (Table IV) / Range of Log10GI50 (Table IV) / Delta of Log10GI50 / Delta of Log10TGI / Range of Log10GI50 / Range of Log10TGI: panel summary. The class given is cell-based. The procedure:
as §1, §2, §3, §4, §5

Where [2] appears, read: Table IV (LC50, PG=−50), MOLT−4.

“Also recorded” adds a separate entry of the source. Where two headings read alike, the source gives them in different places. A value given as a limit tells only on which side of the number the result lay.

As to `CC1=C(C=Cc2cccc(C=CC3=C(C)C4CCC(C)C5CCC6(C)OOC45C(O3)O6)c2)OC2OC3(C)CCC4C(C)CCC1C24OO3` (stereo not shown) [VII-h], in series [1], the “antiproliferative activity in words” value is reported as “at least as antiproliferative as calcitriol”. Also, the “drug concentration for cytotoxicity (percentage growth −50)” value with MOLT-4 is listed as “greater than 10^−4 M”. For the same molecule, the “drug concentration for primary growth inhibition (percentage growth +50)” value with MOLT-4 (MOLT-4, FIGS. 6a-6e) is given as “greater than 10^−8 molar”. The Log10GI50 with MOLT-4 (MOLT-4, PG=+50) is reported as <−8.00 log10M; in the series on MOLT-4 (setting [2]) it was >−4.00 log10M; in the series on SR (Table IV (LC50, PG=−50)), >−4.00 log10M; with HOP-62 (PG=+50), −7.08 log10M; in the series on HOP-62 (Table IV (LC50, PG=−50)), >−4.00 log10M; with RXF 393 (PG=+50), −6.48 log10M. Further, the Log10GI50 with RXF 393 (Table IV (LC50, PG=−50)) is given as >−4.00 log10M; in the series on MDA-N (PG=+50) it was −7.33 log10M; in the series with MDA-N (Table IV (LC50, PG=−50)), >−4.00 log10M. In addition, the Log10TGI with MOLT-4 (MOLT−4) was <−8.00 log10M; with HOP-62, >−4.00 log10M; in the series on ACHN, >−4.00 log10M; with RXF 393 it was >−4.00 log10M; with MDA-N, −5.42 log10M. Besides, the “Log10 GI50 or LC50 (see conditions)” value in the series with ACHN (PG=+50) was −6.86 log10M; in the series with ACHN (Table IV (LC50, PG=−50)) it was >−4.00 log10M. In the series with 60 cell line panel (Table IV (LC50), mean over the panel), the “MG MID of Log10GI50 (Table IV)” value was −4.01 log10M. Also, the “Delta of Log10GI50 (Table IV)” value in the series with 60 cell line panel (Table IV (LC50)) was 0.43. Moreover, in the series with 60 cell line panel (Table IV (LC50)), the “Range of Log10GI50 (Table IV)” value is recorded as “.44”. For the same molecule, the “potency in words, compared with artemisinin and paclitaxel” value in the series on 60 cell line panel (Tables II, III and IV) is “in most instances are as potent and in some instances more potent than paclitaxel; also recorded: more potent than artemisinin and equivalent to and in many instances higher in potency than paclitaxel”. The “MG MID of Log10GI50” value in the series on 60 cell line panel (mean over the panel) was −7.03 log10M. Further, the “MG MID of Log10TGI” value in the series with 60 cell line panel (mean over the panel) is given as −4.61 log10M. Besides, the “Delta of Log10GI50” value in the series with 60 cell line panel came to 0.97. Moreover, the “Delta of Log10TGI” value in the series on 60 cell line panel is on record as 2.62. In addition, the “Range of Log10GI50” value in the series with 60 cell line panel is 4.00. In the series with 60 cell line panel, the “Range of Log10TGI” value turned out to be 3.23.
With `CC(=O)O[C@H]1C(=O)[C@@]2(C)[C@H]([C@H](OC(=O)c3ccccc3)[C@]3(O)C[C@H](OC(=O)[C@H](O)[C@@H](NC(=O)c4ccccc4)c4ccccc4)C(C)=C1C3(C)C)[C@]1(OC(C)=O)CO[C@@H]1C[C@@H]2O` [Paclitaxel, paclitaxel, reference compound], the Log10GI50 in the series on MOLT-4 (MOLT-4, PG=+50) was −11.07 log10M; in the series with MOLT-4 (setting [2]), >−4.00 log10M; in the series with SR (Table IV (LC50, PG=−50)), >−4.00 log10M; with HOP-62 (PG=+50), −9.67 log10M; in the series with RXF 393 (PG=+50), −8.32 log10M; with RXF 393 (Table IV (LC50, PG=−50)), >−4.00 log10M. The Log10GI50 with MDA-N (PG=+50) is −9.31 log10M; in the series on MDA-N (Table IV (LC50, PG=−50)), >−4.00 log10M. Further, the Log10TGI with MOLT-4 (MOLT−4) was −11.07 log10M; in the series on ACHN it was −4.90 log10M; with RXF 393, >−4.00 log10M; with MDA-N, −6.32 log10M. Further, in the series with MOLT-4 (human, 48 h), the “drug concentration for cytotoxicity (percentage growth −50)” value is listed as “greater than 10^−4 M”. Further, in the series with 60 cell line panel (Table IV (LC50)), the “Range of Log10GI50 (Table IV)” value is listed as 4.06. Besides, the “Delta of Log10GI50” value with 60 cell line panel is −10.15. Moreover, the “Delta of Log10TGI” value in the series with 60 cell line panel is listed as −4.54. For the same molecule, the “Range of Log10GI50” value in the series with 60 cell line panel came to 8.00. Also, the “Range of Log10TGI” value in the series with 60 cell line panel turned out to be 7.20.
Take `C[C@@H]1CC[C@H]2[C@@H](C)C(=O)O[C@@H]3O[C@]4(C)CC[C@@H]1[C@]32OO4` [Artemisinin, artemisinin]: the Log10GI50 is listed as −4.73 log10M in the series with MOLT-4 (MOLT-4, PG=+50); >−4.00 log10M in the series with MOLT-4 (setting [2]); >−4.00 log10M in the series with SR (PG=+50); >−4.00 log10M with SR (Table IV (LC50, PG=−50)); >−4.00 log10M in the series with HOP-62 (PG=+50); >−4.00 log10M in the series on HOP-62 (Table IV (LC50, PG=−50)). Besides, the Log10GI50 is on record as −4.08 log10M in the series on RXF 393 (PG=+50); >−4.00 log10M with RXF 393 (Table IV (LC50, PG=−50)); −4.06 log10M in the series with MDA-N (PG=+50); >−4.00 log10M in the series with MDA-N (Table IV (LC50, PG=−50)). Also, the Log10TGI is −4.00 log10M in the series on MOLT-4 (MOLT−4); >−4.00 log10M with SR (PG=0); >−4.00 log10M in the series on HOP-62; >−4.00 log10M in the series on ACHN; >−4.00 log10M in the series with RXF 393; −4.00 log10M with MDA-N. Also, in the series on MOLT-4 (human, 48 h), the “drug concentration for cytotoxicity (percentage growth −50)” value is “greater than 10^−4 M”. In the series with 60 cell line panel (Table IV (LC50)), the “Delta of Log10GI50 (Table IV)” value was −4.00. For the same molecule, in the series with 60 cell line panel (Table IV (LC50)), the “Range of Log10GI50 (Table IV)” value turned out to be 0.00. Besides, the “Delta of Log10GI50” value with 60 cell line panel is reported as −4.07. Also, the “Delta of Log10TGI” value in the series with 60 cell line panel is given as −4.00. In addition, the “Range of Log10GI50” value in the series with 60 cell line panel was 0.73. In the series with 60 cell line panel, the “Range of Log10TGI” value worked out at 0.06.
